According to patent US20260207621A1 (Vividion Therapeutics, Inc., priority 2022, published 2026):

Legend:
KEAP1 C151 = target: T1, KEAP1 C151 (Homo sapiens, UniProt Q14145); test: Nrf2 TMT measurement: in vitro TE50 for KEAP1 C151 (IA-DTB competition, targeted TMT mass spectrometry) in MDA-MB-468 cell lysate; type: binding; details: in vitro target engagement of KEAP1 C151, targeted TMT, read-out: KEAP1_C151 TE50
T1 construct: treating 500 μg of cell lysate generated from MDA-MB-468 breast cancer cells with DMSO or compound; endogenous in cells; host or cells: MDA-MB-468 breast cancer cell lysate
T1 sequence (Q14145 whole entry): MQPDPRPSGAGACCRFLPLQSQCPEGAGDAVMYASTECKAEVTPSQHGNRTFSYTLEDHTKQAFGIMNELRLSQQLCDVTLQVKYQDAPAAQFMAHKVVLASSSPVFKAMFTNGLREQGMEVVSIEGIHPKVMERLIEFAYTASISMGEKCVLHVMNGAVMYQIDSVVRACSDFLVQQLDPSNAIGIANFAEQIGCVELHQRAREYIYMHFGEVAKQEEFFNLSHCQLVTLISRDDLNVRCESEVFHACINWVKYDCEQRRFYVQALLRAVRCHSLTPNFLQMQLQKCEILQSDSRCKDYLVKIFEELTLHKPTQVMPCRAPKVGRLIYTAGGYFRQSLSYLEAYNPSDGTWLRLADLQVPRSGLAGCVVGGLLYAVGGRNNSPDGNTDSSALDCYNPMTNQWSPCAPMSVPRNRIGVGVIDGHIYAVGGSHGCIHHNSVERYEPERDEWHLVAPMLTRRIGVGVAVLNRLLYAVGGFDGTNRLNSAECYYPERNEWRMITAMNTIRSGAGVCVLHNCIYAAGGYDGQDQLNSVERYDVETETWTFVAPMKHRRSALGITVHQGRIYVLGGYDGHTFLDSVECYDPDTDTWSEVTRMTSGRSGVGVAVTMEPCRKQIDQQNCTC
How it was run: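 Occupancy of KEAP1 C151 measured as loss of IA-DTB labeling (200 μM, 1 h, room temperature) after 1 h compound pre-treatment of MDA-MB-468 cell lysate.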

Nrf2 = Nrf2 antagonism assay: ARE luciferase reporter in KYSE-70 cells; type: cell-based; details: positive Imax corresponds to Nrf2 antagonism; for Emax: Homo sapiens, KYSE-70, KYSE-70 cells, read-out: KYSE70 Cellular ARE Luciferase Imax (%); for KYSE70 Cellular ARE Luciferase Imax (%): KYSE-70 cells
How it was run: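 Dose-response curves give IC50 and Imax, with positive Imax read as Nrf2 antagonism, i.e. reduced luciferase signal. Reporter cells are Nrf2-high KYSE-70 (Nrf2 W24C mutant) bearing ARE-controlled luciferase. Antagonists are proposed to act at KEAP1 C151, speeding Nrf2 degradation.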

SMILES	IC50 (KEAP1 C151) [nM]	Emax (Nrf2) [%]	KYSE70 Cellular ARE Luciferase Imax (%) (Nrf2)
C=CC(=O)N1CCN(S(C)(=O)=O)C[C@H]1c1cc(Cl)cc(-c2ccnc(N)n2)c1 (single isomer, unassigned) [Compound 124]	18	72	–
C=CC(=O)N1CC(C)(C)OCC1c1cc(Cl)nc(-c2ccnc(C)n2)c1 (single isomer, unassigned) [Compound 120, 1-(5-(2-chloro-6-(2-methylpyrimidin-4-yl)pyridin-4-yl)-2,2-dimethylmorpholino)prop-2-en-1-one]	110	77	–
C=CC(=O)N1CC(C)(C)OC[C@H]1c1cc(Cl)cc(-c2ncnc(N)n2)c1 (single isomer, unassigned) [Compound 66]	23	93	–
C=CC(=O)N1CCOCC1c1cc(Cl)cc(-c2cnc3cncn3c2)c1 (single isomer, unassigned) [Compound 68, 1-(3-(3-chloro-5-(imidazo[1,5-a]pyrimidin-3-yl)phenyl)morpholino)prop-2-en-1-one]	90	72	–
C=CC(=O)N1CCN(S(C)(=O)=O)C[C@H]1c1cc(Cl)cc(-c2ccnc(N3CCCC3=O)c2)c1 (single isomer, unassigned) [Compound 16]	2.2	62	–
C=CC(=O)N1CCOC[C@H]1c1cc(Cl)cc(-c2nc(C)cc(C)n2)c1 (single isomer, unassigned) [Compound 93]	40	91	–
C=CC(=O)N1CCOCC1c1cc(Cl)cc(-c2cccc(C(N)=O)c2F)c1 (single isomer, unassigned) [Compound 73, 3′-(4-acryloylmorpholin-3-yl)-5′-chloro-2-fluoro-[1,1′-biphenyl]-3-carboxamide]	56	74	–
C=CC(=O)N1CCOCC1c1cc(Cl)cc(-c2cc(C)ncn2)c1 (single isomer, unassigned) [Compound 38, 1-(3-(3-chloro-5-(6-methylpyrimidin-4-yl)phenyl)morpholino)prop-2-en-1-one]	27	89	–
C=CC(=O)N1CCOCC1c1cc(Cl)cc(-c2ccn3ccnc3n2)c1 (single isomer, unassigned) [Compound 63, 1-(3-(3-chloro-5-(imidazo[1,2-a]pyrimidin-7-yl)phenyl)morpholino)prop-2-en-1-one]	3.3	63	–
C=CC(=O)N1CCOC[C@H]1c1cc(Cl)cc(-c2ncn(CC(N)=O)n2)c1 (single isomer, unassigned) [Compound 62]	220	55	–
C=CC(=O)N1CCOCC1c1cc(C#N)cc(-c2ncccn2)c1 (single isomer, unassigned) [Compound 8, 3-(4-acryloylmorpholin-3-yl)-5-(pyrimidin-2-yl)benzonitrile]	55	53	–
C=CC(=O)N1CCOCC1c1cc(Cl)cc(-c2cccc(C(N)=O)c2)c1 (single isomer, unassigned) [Compound 71, 3′-(4-acryloylmorpholin-3-yl)-5′-chloro-[1,1′-biphenyl]-3-carboxamide]	30	78	–
C=CC(=O)N1CCOC[C@H]1c1cc(Cl)cc(-c2ncc(C)cn2)c1 (single isomer, unassigned) [Compound 101]	24	87	–
C=CC(=O)N1CCN(C(C)=O)C[C@H]1c1cc(Cl)cc(C2CCOCC2)c1 (single isomer, unassigned) [Compound 26]	88	56	–
C=CC(=O)N1CCOCC1c1cc(Cl)cc(-c2cccn(C)c2=O)c1 (single isomer, unassigned) [Compound 36, 3-(3-(4-acryloylmorpholin-3-yl)-5-chlorophenyl)-1-methylpyridin-2(1H)-one]	110	69	–
C=CC(=O)N1CCOC[C@H]1c1cc(Cl)cc(-c2ccnc(C)c2)c1 (single isomer, unassigned) [Compound 90]	120	81	–
C=CC(=O)N1CCOCC1c1cc(Cl)cc(-c2ccnc(C(N)=O)n2)c1 (single isomer, unassigned) [Compound 89, 4-(3-(4-acryloylmorpholin-3-yl)-5-chlorophenyl)pyrimidine-2-carboxamide]	36	73	–

The next lines start with results.

IC50 (KEAP1 C151) [nM]	SMILES	Emax (Nrf2) [%]	KYSE70 Cellular ARE Luciferase Imax (%) (Nrf2)
36	C=CC(=O)N1CCOC[C@H]1c1cc(Cl)cc(-c2cncc(N)n2)c1 (single isomer, unassigned) [Compound 250]	92	–
180	C=CC(=O)N1CCOC[C@H]1c1cc(Cl)cc(-c2ncncn2)c1 (single isomer, unassigned) [Compound 147]	74	–
19	C=CC(=O)N1CCOC[C@H]1c1cc(Cl)cc(-c2ncc(OC)c(N)n2)c1 [Compound 261, (R)-1-(3-(3-(4-amino-5-methoxypyrimidin-2-yl)-5-chlorophenyl)morpholino)prop-2-en-1-one]	95	–
61	C=CC(=O)N1CCC(F)(F)CC1c1cc(Cl)cc(-c2ccnc(C)n2)c1 (single isomer, unassigned) [Compound 281, 1-(2-(3-chloro-5-(2-methylpyrimidin-4-yl)phenyl)-4,4-difluoropiperidin-1-yl)prop-2-en-1-on]	84	–
6.6	C=CC(=O)N1CC2(CC2)OCC1c1cc(Cl)nc(-c2ccn3ccnc3c2)c1 (single isomer, unassigned) [Compound 190, 1-(6-(2-chloro-6-(imidazo[1,2-a]pyridin-7-yl)pyridin-4-yl)-4-oxa-7-azaspiro[2,5]octan-7-yl)prop-2-en-1-one]	75	–
25	C=CC(=O)N1C[C@@H](C)N(C(C)=O)C[C@@H]1c1cc(Cl)cc(-c2ncc(N)cn2)c1 (single isomer, unassigned) [Compound 236]	–	87
50	C=CC(=O)N1CCOC[C@H]1c1cc(Cl)cc(-c2ncc(N)c(N)n2)c1 [Compound 253, (R)-1-(3-(3-chloro-5-(4,5-diaminopyrimidin-2-yl)phenyl)morpholino)prop-2-en-1-one]	93	–
150	C=CC(=O)N1CCOC[C@H]1c1cc(Cl)cc(-c2nc(N)[nH]c(=O)n2)c1 (single isomer, unassigned) [Compound 177]	87	–
32	C=CC(=O)N1CCOC[C@H]1c1cc(Cl)cc(-c2cc(C(N)=O)ccn2)c1 (single isomer, unassigned) [Compound 298]	94	–
190	C=CC(=O)N1C[C@@H](C)OC[C@H]1c1cc(Cl)cc(-c2ccc(F)c(C(N)=O)c2)c1 (single isomer, unassigned) [Compound 179]	92	–
45	C=CC(=O)N1CCS(=O)(=O)CC1c1cc(Cl)cc(-c2ncc(N)cn2)c1 (single isomer, unassigned) [Compound 207, 1-(3-(3-(5-aminopyrimidin-2-yl)-5-chlorophenyl)-1,1-dioxidothiomorpholino)prop-2-en-1-one]	90	–
19	C=CC(=O)N1CCOC[C@H]1c1cc(Cl)cc(-c2ncc(F)c(N)n2)c1 (single isomer, unassigned) [Compound 263]	93	–
30	C=CC(=O)N1CCOC[C@H]1c1cc(Cl)cc(C2CNC(=O)N(C)C2)c1 (single isomer, unassigned) [Compound 217]	–	78
16	C=CC(=O)N1CCOC[C@H]1c1cc(Cl)cc(-c2nc(N)nc(NC)n2)c1 (single isomer, unassigned) [Compound 218]	92	–
140	C=CC(=O)N1CCOC[C@H]1c1cc(Cl)cc(C2CNC(=O)CO2)c1 (single isomer, unassigned) [Compound 232]	–	84
200	C=CC(=O)N1CCOC[C@H]1c1cc(Cl)cc(C2CNC(=S)N(C)C2)c1 (single isomer, unassigned) [Compound 226]	85	–
350	C=CC(=O)N1CC2(CCCC2)OCC1(C)c1cc(Cl)cc(-c2nccc(N)n2)c1 (single isomer, unassigned) [Compound 171, 1-(8-(3-(4-aminopyrimidin-2-yl)-5-chlorophenyl)-8-methyl-6-oxa-9-azaspiro[4.5]decan-9-yl)prop-2-en-1-one]	72	–
32	C=CC(=O)N1CCOC[C@H]1c1cc(Cl)cc(-c2nc(N)cnc2F)c1 (single isomer, unassigned) [Compound 280]	90	–
3.5	C=CC(=O)N1[C@H](c2cc(Cl)nc(-c3cc(C(N)=O)ncn3)c2)COC[C@H]1C(F)F (single isomer, unassigned) [Compound 223]	94	–
16	C=CC(=O)N1CCOC[C@H]1c1cc(Cl)cc(-c2cnc(N)c(N)n2)c1 (single isomer, unassigned) [Compound 258]	93	–
25	C=CC(=O)N1[C@H](C)COC[C@H]1c1cc(Cl)cc(-c2ncnc3[nH]cnc23)c1 (single isomer, unassigned) [Compound 137]	92	–
11	C=CC(=O)N1[C@H](c2cc(Cl)nc(-c3ccnc(N)n3)c2)COC[C@H]1C(F)F (single isomer, unassigned) [Compound 203]	87	–
83	C=CC(=O)N1[C@H](C)COC[C@H]1c1cc(Cl)nc(-c2ccnc(N)n2)c1 (single isomer, unassigned) [Compound 144]	86	–
